Results reported in US20250049957A1, “CSF TRANSPORT PATHWAY FOR DELIVERY OF AGENTS TO INNER EAR” (University of Rochester, priority 2021, published 2025).
“Also recorded” adds a separate entry of the source.

Experiments:
[1] = CT live imaging of CSF tracer after intracisternal infusion, with dispersion model; format: in vivo, mouse
Procedure: During the CM cannulation procedure a custom-made head bar was fixed on the top of the animal skull. The head bar was designed to minimize undesired movements during the image acquisition (Yoshida et al., 2016), and fixed to an animal holder. […] Animal's respiration was monitored by using Biovet software. CT scans were performed with the Vector4CT system (MILabs, Utrecht, Netherlands) and scanning of the entire mouse head was performed in 4.56 min at an isotropic spatial resolution of 20 μm. The time series CT scanning protocol comprised one baseline scan (4.5 min) followed by intracisternal infusion of Omnipaque (350 mg I/ml, 1 μL/min, 10 μL, GE healthcare). Scans continued over 6 measurements (30 min) after intracisternal infusion of Omnipaque.
The time-intensity data was extracted using ITK snap with the ROIs described above after background subtraction and then normalized to maximal cisterna magna intensity. Dimensions of cochlear aqueduct were measured using the #X feature in ITK snap for #four animals. Distances between ROIs were calculated using their spatial coordinates.
To solve the equation (#ref), inventors implemented a simple finite difference scheme in Python (#ref) using NumPy and Scipy (#ref). Estimation of the dispersion coefficient was achieved by minimizing the L2-norm prediction error, using Scipy (#ref) E: […]

[2] = mouse, in vivo
Procedure: Briefly, mice were anesthetized with a mixture of Ketamine/Xylazine (100 mg/kg, 10 mg/kg, respectively), after depth of anesthesia was confirmed by the cessation of reflexes, the incision area was properly shaved and sterilized with the aid of ethanol 70% swabs (Vitrex Medical A/S Herlev, DK), followed by iodine solution (Povidone Iodine 7.5% Henry Schein, Melville, NY, USA) applicated using cotton swabs. Before the onset of surgery, analgesics were applied, Lidocaine (0.05 ml, 0.2 mg/ml) was applied in the incision site and Buprenorphine (0.05 mg/kg) injected subcutaneously for post-surgical analgesia. After performing the skin incision around the occipital crest, the neck muscles were separated to reveal the CM underneath. […]
Immediately after the CM cannulation procedure, animals were moved to MRI scanner and head movement during scanning was minimized by restraining the animals on an MR-compatible stereotactic holder with ear bars. Body temperature was maintained at 37±0.5° C. with a thermostatically controlled waterbed and monitored, along with the respiratory rate by an MR compatible remote monitoring system (SA Instruments, NY, USA). […] Every 3D-CISS image was calculated as a maximum intensity projection from 4 realigned 3D-TrueFISP volumes with 4 orthogonal phase encoding directions (TR/TE 3.9/1.95 ms, Nex 2, FA 50°, FOV 19.2×12.8×12.8 mm, Matrix 192×128×128, BW 150 kHz). […]

Time activity curves for tracer influx in mice lacking aqp4 [2] | Time to reach 50 max [2] | Compound | Tracer concentration in scala vestibuli or cochlear nerve (CT) ([1]; during the 30 min of scanning) | Tracer dispersal into scala tympani (CT) ([1]; intracisternal delivery, 30 min of scanning)
– | – | CC(=O)N(CC(O)CO)c1c(I)c(C(=O)NCC(O)CO)c(I)c(C(=O)NCC(O)CO)c1I (stereo not shown) [Omnipaque] | No clear rise; also recorded: no significant tracer arrives | reaches the base and middle region of the scala tympani; also recorded: moves into the base of scala tympani
did not differ from wild type animals | significantly higher in the cochlea | O=C([O-])CN1CCN(CC(=O)[O-])CCN([C@H](CO)[C@H](O)CO)CCN(CC(=O)[O-])CC1.[Gd+3] (racemic) [Gadovist, gadobutrol] | – | –
